Measurements as given in PubChem BioAssay (NCI).
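Cultured in 96-well plates, cells were exposed to test compound for 48 hours across five concentrations. The concentration for 50% growth inhibition is given as GI50. Definition used: TGI = concentration required for complete inhibition of growth.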

Legend:
Experiment in all cases: inhibition of tumour cell growth, NCI panel, 48 h
RPMI-8226 leukemia = test system: RPMI-8226 leukemia
A549 NSCLC = test system: A549 NSCLC
CAKI-1 renal = test system: CAKI-1 renal
SF-295 CNS = test system: SF-295 CNS
HOP-92 NSCLC = test system: HOP-92 NSCLC
SK-OV-3 ovarian = test system: SK-OV-3 ovarian
COLO 205 colon = test system: COLO 205 colon
PC-3 prostate = test system: PC-3 prostate
SR leukemia = test system: SR leukemia
786-0 renal = test system: 786-0 renal
ACHN renal = test system: ACHN renal
SW-620 colon = test system: SW-620 colon
CCRF-CEM leukemia = test system: CCRF-CEM leukemia
MALME-3M melanoma = test system: MALME-3M melanoma
SNB-75 CNS = test system: SNB-75 CNS
HCT-116 colon = test system: HCT-116 colon
UO-31 renal = test system: UO-31 renal

Row | SMILES | TGI (RPMI-8226 leukemia) [µM] | TGI (A549 NSCLC) [µM] | TGI (CAKI-1 renal) [µM] | TGI (SF-295 CNS) [µM] | TGI (HOP-92 NSCLC) [µM] | TGI (SK-OV-3 ovarian) [µM] | TGI (COLO 205 colon) [µM] | TGI (PC-3 prostate) [µM] | TGI (SR leukemia) [µM] | TGI (786-0 renal) [µM] | TGI (ACHN renal) [µM] | TGI (SW-620 colon) [µM] | TGI (CCRF-CEM leukemia) [µM] | TGI (MALME-3M melanoma) [µM] | TGI (SNB-75 CNS) [µM] | TGI (HCT-116 colon) [µM] | TGI (UO-31 renal) [µM] | GI50 (SR leukemia) [µM] | GI50 (SNB-75 CNS) [µM]
1 | CN(C)CCCNc1c(C#N)[n+]([O-])c2cc(Cl)ccc2[n+]1[O-] | 26.4 | 31.5 | > 51.8 | > 49.1 | 25.5 | > 67.1 | 14.6 | > 41.3 | 5.28 | > 100 | 22.2 | 37.1 | 42 | 17.4 | > 100 | 30 | > 46.3 | – | –
2 | CC(=O)N1C(NN(C)C)CCN1c1ccccc1 (centres undefined) | > 10 | > 10 | > 10 | > 10 | > 10 | > 10 | > 10 | > 10 | > 10 | > 10 | – | > 10 | > 10 | > 10 | > 10 | – | – | – | –
3 | Cc1c(F)c(N)c2c(=O)cc(-c3ccc(N)c(F)c3)oc2c1F | > 96.1 | 59 | 0.114 | 43.2 | 63.8 | 38.1 | > 100 | 45.6 | 82.8 | 34.9 | 50.4 | > 100 | > 100 | > 91.4 | 56.2 | 38.2 | 60.1 | – | –
4 | CC(=O)c1cccc(Nc2nc3ccc(Cl)cc3c3[nH]c4ccccc4c23)c1 | > 100 | 8.45 | > 36.7 | 11.1 | 13.4 | 15.9 | 12.8 | 30.9 | > 100 | 11.3 | 40.6 | > 85.6 | > 100 | > 100 | 8.16 | > 54.5 | 41.9 | 4.21 | 2.04
5 | Cn1c(Cl)cn2c3nc4ccccc4nc3c(=O)c(C#N)c12 | > 100 | > 100 | > 100 | > 100 | > 100 | > 100 | > 100 | > 100 | > 100 | > 100 | > 100 | > 100 | > 100 | > 100 | > 81.5 | > 100 | > 100 | – | –
6 | O=C(Cc1ccc(Cl)cc1)Nc1ccc2oc(-c3ccccc3)nc2c1 | > 100 | > 100 | > 100 | > 100 | > 100 | > 100 | > 100 | > 100 | > 100 | > 100 | > 100 | > 100 | > 100 | > 100 | 72.1 | > 100 | – | – | –
7 | c1ccc2c(c1)cc1c3[nH]c4ccccc4c3ccn21 | > 10 | > 10 | > 10 | > 10 | > 10 | > 10 | 3.41 | > 10 | > 10 | > 10 | > 10 | > 10 | > 10 | 4.48 | > 10 | > 10 | > 10 | – | –
8 | OC1[C@H](O)CN(OCc2ccccc2)C[C@@H]1O (some centres undefined) | > 100 | > 100 | > 100 | > 100 | > 100 | – | > 100 | > 100 | > 100 | > 100 | > 100 | > 100 | > 100 | > 100 | > 100 | > 100 | > 100 | – | –
9 | COc1c(Br)cc(/C=C(\C#N)c2cccnc2)cc1Br | > 100 | > 100 | > 100 | > 100 | 75 | > 100 | > 100 | > 100 | > 100 | > 100 | > 100 | > 100 | > 100 | > 100 | > 100 | > 100 | > 100 | – | –
10 | COC(=O)c1c2c(cc3c1CC1(Cc4ccc(C(C)=O)cc4C1)C3)CCC2 (centres undefined) | > 100 | > 100 | > 100 | > 100 | > 100 | > 100 | > 100 | 82.2 | > 100 | > 100 | > 100 | > 100 | > 100 | 61.9 | > 100 | > 100 | > 100 | – | –
11 | O=C(Nc1ccccc1)n1[nH]c(=O)n(-c2ccccc2)c1=O | > 100 | > 100 | > 100 | > 100 | > 100 | > 100 | > 100 | > 100 | > 100 | > 100 | > 100 | > 100 | > 100 | > 100 | > 100 | > 100 | > 100 | – | –
12 | Nc1ncnc2c1ncn2C1OC(CO)C(O)C(O)C1O (centres undefined) | > 100 | > 100 | > 100 | > 100 | > 100 | – | > 100 | > 100 | > 100 | > 100 | > 100 | > 100 | > 100 | > 100 | > 100 | > 100 | > 100 | – | –
13 | COC(=O)CN1SC2(SC13C(C)(C)C(=O)C3(C)C)C(C)(C)C(=O)C2(C)C | > 100 | > 100 | > 100 | > 100 | 21.3 | > 100 | > 100 | > 100 | > 100 | > 100 | > 100 | > 100 | 32.8 | > 100 | > 100 | > 100 | > 100 | – | –
14 | O=P1(c2ccccc2)C(c2ccccc2)=CC=C1c1ccccc1 | 19.4 | > 100 | > 100 | > 100 | 51.1 | > 100 | 46.1 | 62.8 | 52.7 | > 100 | > 100 | > 100 | 62.7 | > 100 | 60.1 | > 100 | > 100 | – | –
